According to paper PMC8487040, “Detection of juvenile hormone agonists by a new reporter gene assay using yeast expressing Drosophila methoprene‐tolerant” (FEBS Open Bio, 2021):

Each compound was assayed against T1, Met–Tai (D. melanogaster Met co-expressed with Tai) (Drosophila melanogaster, UniProt Q9VYW2, T103P) (assay: yeast lacZ reporter gene assay (beta-galactosidase, ONPG)). Details: not given.
T1 construct: full-length Met ORF (codon 103 CCC, Pro); heterodimer; with Taiman
Format: cell-based
From the text: yeast lacZ reporter gene assay (beta-galactosidase, ONPG) on Met–Tai (D. melanogaster Met co-expressed with Tai)

T1 sequence (Q9VYW2 1-716 T103P): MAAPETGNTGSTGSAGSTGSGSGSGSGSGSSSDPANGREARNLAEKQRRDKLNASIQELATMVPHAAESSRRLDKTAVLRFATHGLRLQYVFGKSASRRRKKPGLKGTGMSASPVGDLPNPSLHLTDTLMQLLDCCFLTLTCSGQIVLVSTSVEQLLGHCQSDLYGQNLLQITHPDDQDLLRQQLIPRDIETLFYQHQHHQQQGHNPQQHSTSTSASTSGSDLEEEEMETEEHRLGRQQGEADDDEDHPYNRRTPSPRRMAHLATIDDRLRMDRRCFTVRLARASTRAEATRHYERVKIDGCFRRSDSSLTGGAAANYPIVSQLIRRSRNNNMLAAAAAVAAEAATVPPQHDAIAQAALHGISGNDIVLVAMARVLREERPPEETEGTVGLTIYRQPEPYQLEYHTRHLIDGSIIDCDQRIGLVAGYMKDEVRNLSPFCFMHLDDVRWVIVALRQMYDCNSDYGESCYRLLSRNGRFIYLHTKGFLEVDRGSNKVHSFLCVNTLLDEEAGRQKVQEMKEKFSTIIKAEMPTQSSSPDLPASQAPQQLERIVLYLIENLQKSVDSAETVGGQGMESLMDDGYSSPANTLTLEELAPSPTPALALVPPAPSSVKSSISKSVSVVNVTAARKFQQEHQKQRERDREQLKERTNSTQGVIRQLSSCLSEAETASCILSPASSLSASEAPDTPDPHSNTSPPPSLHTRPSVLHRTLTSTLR
T1 sequence (Q9VLD9 1-2026 partner): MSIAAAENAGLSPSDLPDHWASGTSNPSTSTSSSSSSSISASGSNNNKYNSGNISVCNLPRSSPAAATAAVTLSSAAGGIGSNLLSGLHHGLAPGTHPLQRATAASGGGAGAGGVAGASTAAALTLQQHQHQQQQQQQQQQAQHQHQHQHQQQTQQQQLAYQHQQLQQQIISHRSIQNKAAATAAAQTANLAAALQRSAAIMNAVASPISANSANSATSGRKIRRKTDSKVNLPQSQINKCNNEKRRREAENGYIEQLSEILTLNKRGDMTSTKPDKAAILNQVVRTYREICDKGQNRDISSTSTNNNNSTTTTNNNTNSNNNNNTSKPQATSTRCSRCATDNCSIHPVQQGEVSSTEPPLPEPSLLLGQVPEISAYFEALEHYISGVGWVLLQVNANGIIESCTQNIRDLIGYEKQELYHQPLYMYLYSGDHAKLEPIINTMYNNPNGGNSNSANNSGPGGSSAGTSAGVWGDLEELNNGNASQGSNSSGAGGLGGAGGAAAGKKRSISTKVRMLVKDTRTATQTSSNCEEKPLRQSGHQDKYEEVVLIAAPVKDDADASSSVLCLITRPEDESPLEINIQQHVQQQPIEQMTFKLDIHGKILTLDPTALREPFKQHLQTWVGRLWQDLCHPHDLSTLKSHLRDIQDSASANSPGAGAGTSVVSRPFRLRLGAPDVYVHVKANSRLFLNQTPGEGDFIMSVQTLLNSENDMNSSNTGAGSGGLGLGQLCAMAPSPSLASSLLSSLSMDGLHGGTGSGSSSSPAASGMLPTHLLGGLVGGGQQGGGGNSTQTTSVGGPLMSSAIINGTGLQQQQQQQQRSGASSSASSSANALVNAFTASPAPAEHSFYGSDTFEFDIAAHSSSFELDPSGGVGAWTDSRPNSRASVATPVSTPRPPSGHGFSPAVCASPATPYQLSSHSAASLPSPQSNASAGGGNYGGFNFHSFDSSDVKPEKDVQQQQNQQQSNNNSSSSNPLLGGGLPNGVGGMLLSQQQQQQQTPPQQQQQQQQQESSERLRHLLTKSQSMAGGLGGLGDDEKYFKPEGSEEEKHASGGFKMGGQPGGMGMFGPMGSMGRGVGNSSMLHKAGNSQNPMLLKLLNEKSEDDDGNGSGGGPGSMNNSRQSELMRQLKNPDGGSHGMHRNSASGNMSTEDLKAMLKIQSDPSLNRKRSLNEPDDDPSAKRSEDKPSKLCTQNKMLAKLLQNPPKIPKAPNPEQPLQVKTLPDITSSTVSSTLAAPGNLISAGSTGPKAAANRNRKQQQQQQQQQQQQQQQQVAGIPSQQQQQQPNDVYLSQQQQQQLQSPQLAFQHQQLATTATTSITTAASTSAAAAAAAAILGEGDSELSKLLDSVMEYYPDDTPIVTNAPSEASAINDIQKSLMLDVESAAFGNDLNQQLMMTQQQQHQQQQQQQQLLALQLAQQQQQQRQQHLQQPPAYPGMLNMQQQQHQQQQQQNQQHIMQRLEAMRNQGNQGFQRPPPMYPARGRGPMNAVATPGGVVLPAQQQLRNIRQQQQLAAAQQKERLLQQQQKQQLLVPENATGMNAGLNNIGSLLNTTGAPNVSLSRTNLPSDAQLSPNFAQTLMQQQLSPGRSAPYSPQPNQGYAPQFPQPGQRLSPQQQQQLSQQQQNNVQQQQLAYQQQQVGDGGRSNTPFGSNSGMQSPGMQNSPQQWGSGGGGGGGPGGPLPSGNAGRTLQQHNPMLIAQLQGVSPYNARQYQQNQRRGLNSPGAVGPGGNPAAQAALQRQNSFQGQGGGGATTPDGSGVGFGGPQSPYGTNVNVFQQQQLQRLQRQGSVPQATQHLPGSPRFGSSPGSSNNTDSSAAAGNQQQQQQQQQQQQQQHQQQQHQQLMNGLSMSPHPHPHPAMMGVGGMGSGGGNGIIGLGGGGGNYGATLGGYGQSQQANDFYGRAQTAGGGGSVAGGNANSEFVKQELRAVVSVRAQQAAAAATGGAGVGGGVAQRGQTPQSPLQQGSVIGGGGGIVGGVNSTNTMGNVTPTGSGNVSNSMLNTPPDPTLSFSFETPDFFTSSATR

Structure (SMILES)	EC50
CCOC(=O)/C=C(C)/C=C/C[C@@H](C)CCCC(C)C [(S)‐hydroprene]	570 ± 150 nM
CCOC(=O)NCCOc1ccc(Oc2ccccc2)cc1 [Fenoxycarb]	3 ± 1 nM
CC/C(=C\C(=O)OC)CC/C=C(\CC)CC[C@H]1O[C@@]1(C)CC [JH 0]	213 ± 14 nM
COC(=O)/C=C(\C)CC/C=C(\C)CC[C@H]1OC1(C)C [JH III]	62 ± 5 nM
CC[C@]1(C)O[C@@H]1CC/C(C)=C/CC/C(C)=C/C(=O)OC [JH II]	50 ± 17 nM
CC/C(=C\CC/C(C)=C/C(=O)OC)CC[C@H]1O[C@@]1(C)CC [JH I]	65 ± 11 nM
COC(C)(C)CCCC(C)C/C=C/C(C)=C/C(=O)OC(C)C (stereo not drawn) [Methoprene]	1100 ± 230 nM
COC(=O)/C=C(\C)CC/C=C(\C)CCC=C(C)C [Methyl farnesoate]	160 ± 7 nM

Same assay, conditions: agonist; 30 °C, 18 h; Tai co-expressed; BmkJHRE x 2 reporter

Structure (SMILES)	EC50
CC(COc1ccc(Oc2ccccc2)cc1)Oc1ccccn1 (stereo not drawn) [Pyriproxyfen]	87 ± 12 nM
